The results in this text go back to article PMC9528096, “A phase Ib study of camrelizumab in combination with apatinib and fuzuloparib in patients with recurrent or metastatic triple-negative breast cancer” (BMC Medicine, 2022).

The nature of this series: clinical. On the set-up: species or system human. Particulars: in vivo; for Tmax: human. How it is done:
Adverse events were monitored throughout the study treatment from informed consent until 90 days after the last camrelizumab dose or 30 days after the last apatinib or fuzuloparib dose, whichever occurred later, and were graded according to the National Cancer Institute Common Terminology Criteria for Adverse Events version 5.0. Radiographic assessment was performed by computed tomography (CT) or magnetic resonance imaging (MRI) according to RECIST version 1.1 at baseline and every two cycles. Complete or partial responses were confirmed 4 weeks later. Blood samples for pharmacokinetic analysis of apatinib and fuzuloparib were collected in all patients enrolled in the dose-finding part and in six to eight patients enrolled in the dose-expansion part. To evaluate the pharmacokinetic data of single-agent apatinib, patients intended for pharmacokinetic analysis were given apatinib alone 3 days before combination treatment initiation. Blood samples were collected 30 min pre-dose, 30 min, 1 h, 2 h, 3 h, 4 h, 8 h, 12 h, and 24 h post-dose on day − 3 of cycle 0 and day 1 of cycle 1.
The primary endpoint was DLT in cycle 1.
Safety and antitumor activity analyses were performed in all patients who received at least one dose of the study treatment. Continuously distributed data were summarized as mean (standard deviation) or median (range). Categorical data were summarized by the number and percentage of patients in each category. Adverse events were summarized descriptively. Two-sided 95% confidence intervals (CIs) for ORR and DCR were calculated using the Clopper-Pearson method. The PFS, DOR, and 12-month OS rate and their corresponding 95% CIs were estimated using the Kaplan–Meier method. Analyses of safety and antitumor activity were performed with SAS version 9.4. Pharmacokinetic parameters were descriptively summarized with non-compartmental analysis using WinNonlin (version 8.2).

For orientation: Tmax means the time from dosing to the highest level. With `N#CC1(c2ccc(NC(=O)c3cccnc3NCc3ccncc3)cc2)CCCC1` [Apatinib, apatinib], the Tmax was found to be 2 h; the “Apatinib exposure before and after co-administration with fuzuloparib” value is “comparable”.
Turning to `O=C(c1cc(Cc2n[nH]c(=O)c3ccccc23)ccc1F)N1CCn2nc(C(F)(F)F)nc2C1` [Fuzuloparib, fuzuloparib], the Tmax is 3 h.
